From BindingDB's records for doi:10.1021/jm00045a011 (Eisai, 1994)

Target: Arachidonate 5-lipoxygenase (Homo sapiens)
Test: Tested for inhibitory activity against leukotriene B4 (LTB4) production in human neutrophils

IC50: 30 nM
SMILES: Cc1c(O)c(C)c2sc(NCc3ccc(S(N)(=O)=O)cc3)nc2c1C [4-[(6-Hydroxy-4,5,7-trimethyl-benzothiazol-2-ylamino)-methyl]-benzenesulfonamide]
